Laboratory results from PubChem BioAssay (NCI).
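Tested at 5 concentrations; 48 h exposure; 96-well plates; endpoints linearly interpolated, else capped at highest concentration. GI50 marks 50% less growth. TGI marks complete inhibition of growth.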

Legend:
Test in all cases: inhibition of tumour cell growth, NCI panel, 48 h
[1] = tested on: SF-268 CNS
[2] = tested on: A498 renal
[3] = tested on: IGROV1 ovarian
[4] = tested on: SNB-78 CNS
[5] = tested on: 786-0 renal
[6] = tested on: OVCAR-8 ovarian
[7] = tested on: OVCAR-4 ovarian
[8] = tested on: EKVX NSCLC
[9] = tested on: U251 CNS
[10] = tested on: HCT-15 colon
[11] = tested on: NCI-H460 lung
[12] = tested on: RPMI-8226 leukemia
[13] = tested on: SW-620 colon
[14] = tested on: UACC-62 melanoma
[15] = tested on: SK-MEL-2 melanoma
[16] = tested on: CCRF-CEM leukemia
[17] = tested on: SNB-19 CNS
[18] = tested on: KM12 colon
[19] = tested on: NCI-H23 lung
[20] = tested on: KM20L2 colon
[21] = tested on: SK-OV-3 ovarian
[22] = tested on: M14 melanoma
[23] = tested on: OVCAR-5 ovarian
[24] = tested on: TK-10 renal
[25] = tested on: A549 NSCLC
[26] = tested on: RXF 393 renal
[27] = tested on: ACHN renal
[28] = tested on: SN12C renal
[29] = tested on: SK-MEL-28 melanoma
[30] = tested on: K-562 leukemia
[31] = tested on: HCC-2998 colon
[32] = tested on: UACC-257 melanoma
[33] = tested on: DMS 273 small cell lung
[34] = tested on: CAKI-1 renal
[35] = tested on: HCT-116 colon
[36] = tested on: LOX IMVI melanoma
[37] = tested on: COLO 205 colon
[38] = tested on: SNB-75 CNS
[39] = tested on: HOP-18 NSCLC
[40] = tested on: NCI-H522 lung
[41] = tested on: MALME-3M melanoma
[42] = tested on: LXFL 529 NSCLC
[43] = tested on: HOP-92 NSCLC
[44] = tested on: UO-31 renal
[45] = tested on: DLD-1 colon
[46] = tested on: NCI-H226 lung
[47] = tested on: HT29 colon

For `O=c1c(O)c(O)c1=O.[NH2-].[NH2-].[NH2-].[NH2-].[NH2-].[Ru+5]`, the GI50 [1] was over 100 µM, the TGI [1] was over 100 µM and the GI50 [2] was over 100 µM. The TGI [2] was over 100 µM, the GI50 [3] was over 100 µM and the TGI [3] was over 100 µM. The GI50 [4] was over 100 µM, the TGI [4] was over 100 µM and the GI50 [5] was over 100 µM. For the same compound, the TGI [5] was over 100 µM, the GI50 [6] was over 100 µM and the TGI [6] was over 100 µM. It also gave a GI50 [7] of over 100 µM, a TGI [7] of over 100 µM and a GI50 [8] of over 100 µM. For the same compound, the TGI [8] was over 100 µM, the GI50 [9] was over 100 µM and the TGI [9] was over 100 µM. The GI50 [10] was over 100 µM, the TGI [10] was over 100 µM and the GI50 [11] was over 100 µM. For the same compound, the TGI [11] was over 100 µM, the GI50 [12] was over 100 µM and the TGI [12] was over 100 µM. It also gave a GI50 [13] of over 100 µM, a TGI [13] of over 100 µM and a GI50 [14] of over 100 µM. The TGI [14] was over 100 µM, the GI50 [15] was over 100 µM and the TGI [15] was over 100 µM. For the same compound, the GI50 [16] was over 100 µM, the TGI [16] was over 100 µM and the GI50 [17] was over 100 µM. It also gave a TGI [17] of over 100 µM, a GI50 [18] of over 100 µM and a TGI [18] of over 100 µM. It also gave a GI50 [19] of over 100 µM, a TGI [19] of over 100 µM and a GI50 [20] of over 100 µM. For the same compound, the TGI [20] was over 100 µM, the GI50 [21] was over 100 µM and the TGI [21] was over 100 µM. The GI50 [22] was over 100 µM, the TGI [22] was over 100 µM and the GI50 [23] was over 100 µM. It also gave a TGI [23] of over 100 µM, a GI50 [24] of over 100 µM and a TGI [24] of over 100 µM. The GI50 [25] was over 100 µM, the TGI [25] was over 100 µM and the GI50 [26] was over 100 µM. It also gave a TGI [26] of over 100 µM, a GI50 [27] of over 100 µM and a TGI [27] of over 100 µM. It also gave a GI50 [28] of over 100 µM, a TGI [28] of over 100 µM and a GI50 [29] of over 100 µM. It also gave a TGI [29] of over 100 µM, a GI50 [30] of over 100 µM and a TGI [30] of over 100 µM. For the same compound, the GI50 [31] was over 100 µM, the TGI [31] was over 100 µM and the GI50 [32] was over 100 µM. It also gave a TGI [32] of over 100 µM, a GI50 [33] of over 100 µM and a TGI [33] of over 100 µM. It also gave a GI50 [34] of over 100 µM, a TGI [34] of over 100 µM and a GI50 [35] of over 100 µM. The TGI [35] was over 100 µM, the GI50 [36] was over 100 µM and the TGI [36] was over 100 µM. It also gave a GI50 [37] of over 100 µM, a TGI [37] of over 100 µM and a GI50 [38] of over 100 µM. It also gave a TGI [38] of over 100 µM, a GI50 [39] of over 100 µM and a TGI [39] of over 100 µM. It also gave a GI50 [40] of over 100 µM, a TGI [40] of over 100 µM and a GI50 [41] of over 100 µM. For the same compound, the TGI [41] was over 100 µM, the GI50 [42] was over 100 µM and the TGI [42] was over 100 µM. It also gave a GI50 [43] of over 100 µM, a TGI [43] of over 100 µM and a GI50 [44] of over 100 µM. The TGI [44] was over 100 µM, the GI50 [45] was over 100 µM and the TGI [45] was over 100 µM. It also gave a GI50 [46] of over 100 µM, a TGI [46] of over 100 µM and a GI50 [47] of over 100 µM. The TGI [47] was over 100 µM.
